Measured values reported in patent US20260240826A1, “COMPOSITIONS FOR PD-L1 INHIBITION AND METHODS OF USE THEREOF” (ARIZONA BOARD OF REGENTS ON BEHALF OF THE UNIVERSITY OF …, priority 2023, published 2026).

System: SKH-1 mouse skin
Assay: NanoString nCounter gene expression analysis (Mouse Inflammation V2 panel) of SKH-1 mouse skin
Format: in vivo
Description: UVB exposure was performed on AP-1 luciferase reporter mice on the SKH-1 genetic background at a dose of 2.75 kJ/m2 using FS40 bulbs (Q-Lab Corporation) as described before with the modification that mice were imaged 24 hr post UVB exposure using whole body bioluminescence instead of 48 hr post UVB using ear punches. SSL irradiation of SKH-1 mice (Charles River Laboratories, strain code 477) at a dose of 90 kJ/m2 UVA/6 kJ/m2 UVB was performed using UVA-340 bulbs (Q-Lab Corporation) as described before.
SKH-1 mouse skin [full thickness, 3 biological samples (i.e., 3 mice per treatment group)] treated either with vehicle (acetone) or 8 mM BMS-202 (all 3 times: 24 hr pre, 1 hr pre, and immediately post) and harvested 24 hr after acute SSL. First, total mRNA was prepared using the RNeasy Mini kit (Qiagen). Next, 100 ng was used for NanoString® nCounter® analysis (using the ‘Mouse Inflammation V2’ panel; probing 254 genes, NanoString® Technologies) comparing gene expression between treatment groups. Total mRNA was hybridized with the ‘Mouse Inflammation V2’ code set at 65° C. overnight. Further purification and binding of the hybridized probes to the optical cartridge was performed on the nCounter® Prep Station, and finally, the cartridge was scanned on the nCounter® Digital Analyzer. RCC files were then imported into nSolver4.0 software (NanoString® Technologies) and checked for data quality using default QC settings; all samples passed data quality QC. All samples were normalized using the geometric mean of the housekeeper genes. Expression ratios were calculated by dividing the mean values of all samples in one experimental group (UV+BMS-202) by the mean values of all samples in the reference group (UV+vehicle control). For data analysis, low count threshold value was 200. For heatmap depiction (FIGS. 3A and 3B, FIG. 5 and FIG. 6), a z-score for a specific gene indicates the number of SDs away from the mean of expression in the reference samples. For ‘pathway score analysis’ (FIGS. 4A, 4B, and 4C), each sample's gene expression profile was then condensed into a small set of pathway scores using nCounter® Advanced Analysis software (version 2.0.115). Pathway scores were fit using the first principal component of each gene set's data, oriented such that each pathway score has positive weights for at least half its genes.
Individual samples were run in triplicate format of biological replicates, and data analysis was performed using the nSolver analysis software (4.0). For p-value adjustment (Benjamini-Yekutieli False Discovery Rate; p-value threshold: 0.05), nCounter® Advanced Analysis software (version 2.0.115) was used. Nonparametric data analysis of murine experimentation was performed using the Mann-Whitney test. Differences between groups were considered significant at *p<0.05.

[1] = 8 mM topical + SSL vs SSL control, SKH-1 skin, 24 hr
[2] = 8 mM topical + SSL vs vehicle + SSL

`COc1nc(OCc2cccc(-c3ccccc3)c2C)ccc1CNCCNC(C)=O` [BMS-202] gave a Bcl6 fold change [1] of −12.8 fold, a C1qa fold change [1] of −4.5 fold and a C3 fold change [1] of −9.0 fold. For the same molecule, the C4a fold change [1] was −5.9 fold, the C8b fold change [1] was 26.2 fold and the C9 fold change [1] was 18.6 fold. For the same molecule, the Ccl2 fold change [1] was −5.3 fold, the Ccl2 fold downregulation [1] was 5.3 fold and the Ccl7 fold change [1] was −8.1 fold. It also gave a Ccl7 fold downregulation [1] of 8.1 fold, a Ccl8 fold change [1] of −5.0 fold and a Ccl8 fold downregulation [1] of 5.0 fold. The Ccr3 fold change [1] was 20.5 fold, the Cdc42 fold change [1] was −4.6 fold and the Cebpb fold change [1] was −8.3 fold. It also gave a Cfl1 fold change [1] of −10.8 fold, a Chi3l3 fold change [1] of 10.5 fold and a Crp fold change [1] of 23.9 fold. For the same molecule, the Cxcl1 fold change [1] was −4.1 fold, the Cxcl1 fold downregulation [1] was 4.1 fold and the Cxcl3 fold change [1] was −9.1 fold. For the same molecule, the Cxcl5 fold change [1] was −11.6 fold, the Cxcl5 fold downregulation [1] was 11.6 fold and the Cxcl10 fold change [1] was 4.3 fold. The Cysltr2 fold change [1] was 14.4 fold, the Defa-rs1 fold change [1] was 51.0 fold and the Fos fold change [1] was −4.1 fold. For the same molecule, the Fos fold downregulation [1] was 4.1 fold, the Fxyd2 fold change [1] was −17.0 fold and the Gnas fold change [1] was −11.5 fold. It also gave a Gnas fold downregulation [1] of 11.5 fold, a Gnb1 fold change [1] of −5.8 fold and a Gnb1 fold downregulation [1] of 5.8 fold. For the same molecule, the Grb2 fold change [1] was −4.5 fold, the H2-Eb1 fold change [1] was −14.2 fold and the Hif1a fold change [1] was −9.6 fold. It also gave a Hif1a fold downregulation [1] of 9.6 fold, an II1r1 fold downregulation [1] of 5.5 fold and an Ifi44 fold change [1] of 5.2 fold. It also gave an Ifna1 fold change [1] of 89.3 fold, an Ifnb1 fold change [1] of 16.4 fold and an Ifng fold change [1] of 10.6 fold. It also gave an Il1b fold downregulation [1] of 2.9 fold, an Il1r1 fold change [1] of −5.5 fold and an Il1rap fold downregulation [1] of 3.6 fold. It also gave an Il6ra fold downregulation [1] of 3.4 fold, an Il9 fold change [1] of 28.9 fold and an Il10rb fold downregulation [1] of 3.2 fold. The Il18 fold change [1] was −20.0 fold, the Il18 fold downregulation [1] was 20.0 fold and the Il21 fold change [1] was 50.1 fold. It also gave an Il23a fold change [1] of 6.5 fold, an Irf1 fold change [1] of −4.1 fold and an Itgb2 fold change [1] of −8.2 fold. For the same molecule, the Jun fold change [1] was −5.9 fold, the Jun fold downregulation [1] was 5.9 fold and the Kng1 fold change [1] was 14.9 fold. The “Ly96 (coreceptor of Tlr4) fold downregulation” value [1] was 11.0 fold, the Ly96 fold change [1] was −11.0 fold and the Map2k1 fold change [1] was −5.8 fold. It also gave a Map2k1 fold downregulation [1] of 5.8 fold, a Map2k4 fold change [1] of −6.4 fold and a Map2k4 fold downregulation [1] of 6.4 fold. It also gave a Map3k1 fold change [1] of −4.5 fold, a Map3k1 fold downregulation [1] of 4.5 fold and a Map3k5 fold change [1] of −6.4 fold. The Map3k5 fold downregulation [1] was 6.4 fold, the Map3k7 fold downregulation [1] was 3.7 fold and the Mapk1 fold downregulation [1] was 3.7 fold. For the same molecule, the Mapk3 fold change [1] was −6.3 fold, the Mapk3 fold downregulation [1] was 6.3 fold and the Mapk8 fold downregulation [1] was 3.1 fold. It also gave a Mapk14 fold change [1] of −5.9 fold, a Mapk14 fold downregulation [1] of 5.9 fold and a Mapkapk2 fold change [1] of −5.2 fold. It also gave a Mapkapk2 fold downregulation [1] of 5.1 fold, a Mbl2 fold change [1] of 15.7 fold and a Mef2c fold change [1] of −64.9 fold. The Mmp3 fold downregulation [1] was 3.8 fold, the Mmp9 fold change [1] was −8.2 fold and the Mmp9 fold downregulation [1] was 8.2 fold. It also gave a Mrc1 fold change [1] of −5.4 fold, a Mx1 fold change [1] of 36.2 fold and a Mx2 fold change [1] of 5.3 fold. The Myc fold downregulation [1] was 3.3 fold, the Myd88 fold downregulation [1] was 2.7 fold and the Nf2el2 fold downregulation [1] was 3.5 fold. For the same molecule, the Nfatc3 fold change [1] was −4.1 fold, the Nfatc3 fold downregulation [1] was 4.1 fold and the Nfkb1 fold change [1] was −5.9 fold. It also gave a Nfkb1 fold downregulation [1] of 5.9 fold, a Nod2 fold change [1] of −5.1 fold and a Nos2 fold change [1] of 6.1 fold. It also gave a Nr3c1 fold change [1] of −4.9 fold, an Oas1a fold change [1] of −4.3 fold and a Pdgfa fold change [1] of −5.2 fold. For the same molecule, the Pdgfa fold downregulation [1] was 5.2 fold, the Ppp1r12b fold change [1] was −12.1 fold and the Ptgs1 fold downregulation [1] was 3.1 fold. For the same molecule, the Ptgs2 fold downregulation [1] was 1.7 fold, the Rac1 fold change [1] was −7.3 fold and the Rac1 fold downregulation [1] was 7.3 fold. It also gave a Raf1 fold change [1] of −5.7 fold, a Raf1 fold downregulation [1] of 5.7 fold and a Rhoa fold change [1] of −5.9 fold. The Shc1 fold change [1] was −7.4 fold, the Stat1 fold downregulation [1] was 2.8 fold and the Stat2 fold downregulation [1] was 2.5 fold. The Stat3 fold change [1] was −7.4 fold, the Stat3 fold downregulation [1] was 7.4 fold and the Tcf4 fold change [1] was −4.4 fold. For the same molecule, the Tgfb1 fold change [1] was −13.3 fold, the Tgfb1 fold downregulation [1] was 13.3 fold and the Tgfb3 fold downregulation [1] was 2.7 fold. The Tlr2 fold downregulation [1] was 2.4 fold, the Tlr8 fold downregulation [1] was 3.4 fold and the Tlr9 fold change [1] was 8.3 fold. It also gave a Tnfsf14 fold change [1] of 4.8 fold, a Trem2 fold change [1] of −4.5 fold and a Tslp fold change [1] of 4.3 fold. The Tyrobp fold change [1] was −4.9 fold, the “pathway score: immune response” value [2] was “upregulated” and the “pathway scores: activation of NFκB, innate immune response, chemokine activity, inflammatory response, angiogenesis” value [2] was “downregulated”.
